In patent US20240294499A1, “TARGETED PROTEIN DEGRADATION USING BIFUNCTIONAL COMPOUNDS THAT BIND UBIQUITIN LIGASE AND TARGET MCL-1 PROTEIN” (Captor Therapeutics S.A., priority 2021, published 2024):

Key:
[1] = biological target: [MCL-1]-[compound of formula (I)]-[CRBN/DDB1] complex (Homo sapiens, UniProt Q07820+Q96SW2); assay: HTRF ternary complex assay; assay type: binding; details: ternary complex formation; read-out: HTRF ternary complex Average pEC50 by molecule (converted)
Experimental: The effect of the bifunctional compounds of the invention on the formation of a ternary complex composed of [MCL-1]-[compound of formula (I)]-[CRBN/DDB1] was investigated.
Mix of protein solution were prepared: • 48 nM hMcl-1 and 105.6 nM CRBN was prepared in PPI Europium detection buffer with 2 mM DTT. • Acceptor and donor stock solutions were diluted 100 times in PPI Europium detection buffer. Equal volumes of both reagents were mixed. Finally giving 3 nM of Streptavidin-Eu cryptate […] and 6.67 nM of Anti-6× his-d2 […].
5 μl of protein mix was dispensed to all wells. The tested compounds in dose-response were dispensed onto a white 384-well low volume plate (Greiner, 784075). DMSO was backfilled to all wells, resulting in a final DMSO content of 0.5%. Wells containing only DMSO served as background. Next, 5 μl of solution with donor and acceptor was added to the wells.
The plate was sealed with transparent film and shaken using a VibroTurbulator for 60 see at level 3. The plate was then spun down shortly (10 s, 1000 rcf) and incubated at 25° C. for 180 min.
The read-out was performed with plate reader (Pherastar, BMG Labtech) in time resolved fluorescence mode. Filterset: TR 337 665 620.
The results were analyzed as follows: • 1) an average of fluorescence for background signal was calculated and used as a negative control; • 2) raw fluorescence values for tested compounds were normalized against negative controls; • 3) bell shape curve was fitted to a gaussian distribution using a non-linear least squares Gauss-Newton algorithm; • 4) EC50 and pEC50 values were determined.

ARH-77 cells = assay: Cell viability assay (CellTiter-Glo), ARH-77; assay type: cell-based; details: Homo sapiens, ARH-77, 24 hours incubation, 1% FBS, read-out: Average pIC50 by molecule ARH-77 (converted)
Method in brief: (§1)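 OPM-2, MV-4-11 and ARH-77 cells were grown in medium with 1% FBS and treated with compound in 1/3 dilutions from 30 uM (9–12 points, 0.5% DMSO). Viability was read by CellTiter-Glo luminescence after 24 hours and normalized to DMSO control.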

MV-4-11 cells = assay: Cell viability assay (CellTiter-Glo), MV-4-11; assay type: cell-based; details: Homo sapiens, MV4-11, 24 hours incubation, 1% FBS, read-out: Average pIC50 by molecule MV-4-11 (converted)
Method in brief: as §1

[MCL-1]-[compound of formula (I)]-[CRBN/DDB1] complex, sequence (Q07820 whole entry): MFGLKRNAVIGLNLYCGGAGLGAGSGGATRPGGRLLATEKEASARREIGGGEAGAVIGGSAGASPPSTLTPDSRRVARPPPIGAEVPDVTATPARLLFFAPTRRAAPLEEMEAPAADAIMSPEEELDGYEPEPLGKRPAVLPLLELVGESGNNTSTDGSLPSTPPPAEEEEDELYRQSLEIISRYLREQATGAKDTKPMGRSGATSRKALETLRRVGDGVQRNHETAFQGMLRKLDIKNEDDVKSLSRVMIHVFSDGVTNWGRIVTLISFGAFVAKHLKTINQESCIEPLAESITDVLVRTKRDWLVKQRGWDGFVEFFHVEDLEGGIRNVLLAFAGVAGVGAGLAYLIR
[MCL-1]-[compound of formula (I)]-[CRBN/DDB1] complex, sequence (Q96SW2 whole entry): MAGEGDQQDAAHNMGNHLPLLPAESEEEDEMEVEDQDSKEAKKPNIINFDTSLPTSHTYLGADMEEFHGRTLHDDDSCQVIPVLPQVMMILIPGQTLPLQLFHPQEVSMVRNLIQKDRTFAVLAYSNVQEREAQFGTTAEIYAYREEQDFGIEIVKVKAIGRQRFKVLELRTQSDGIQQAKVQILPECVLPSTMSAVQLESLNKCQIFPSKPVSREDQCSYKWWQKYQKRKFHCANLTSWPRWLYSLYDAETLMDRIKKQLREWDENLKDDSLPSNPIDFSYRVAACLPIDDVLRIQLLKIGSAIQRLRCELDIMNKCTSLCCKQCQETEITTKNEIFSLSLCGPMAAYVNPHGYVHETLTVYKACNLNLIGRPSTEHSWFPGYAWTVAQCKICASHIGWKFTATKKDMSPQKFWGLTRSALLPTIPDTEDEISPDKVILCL
[MCL-1]-[compound of formula (I)]-[CRBN/DDB1] complex, sequence (Q16531 whole entry partner): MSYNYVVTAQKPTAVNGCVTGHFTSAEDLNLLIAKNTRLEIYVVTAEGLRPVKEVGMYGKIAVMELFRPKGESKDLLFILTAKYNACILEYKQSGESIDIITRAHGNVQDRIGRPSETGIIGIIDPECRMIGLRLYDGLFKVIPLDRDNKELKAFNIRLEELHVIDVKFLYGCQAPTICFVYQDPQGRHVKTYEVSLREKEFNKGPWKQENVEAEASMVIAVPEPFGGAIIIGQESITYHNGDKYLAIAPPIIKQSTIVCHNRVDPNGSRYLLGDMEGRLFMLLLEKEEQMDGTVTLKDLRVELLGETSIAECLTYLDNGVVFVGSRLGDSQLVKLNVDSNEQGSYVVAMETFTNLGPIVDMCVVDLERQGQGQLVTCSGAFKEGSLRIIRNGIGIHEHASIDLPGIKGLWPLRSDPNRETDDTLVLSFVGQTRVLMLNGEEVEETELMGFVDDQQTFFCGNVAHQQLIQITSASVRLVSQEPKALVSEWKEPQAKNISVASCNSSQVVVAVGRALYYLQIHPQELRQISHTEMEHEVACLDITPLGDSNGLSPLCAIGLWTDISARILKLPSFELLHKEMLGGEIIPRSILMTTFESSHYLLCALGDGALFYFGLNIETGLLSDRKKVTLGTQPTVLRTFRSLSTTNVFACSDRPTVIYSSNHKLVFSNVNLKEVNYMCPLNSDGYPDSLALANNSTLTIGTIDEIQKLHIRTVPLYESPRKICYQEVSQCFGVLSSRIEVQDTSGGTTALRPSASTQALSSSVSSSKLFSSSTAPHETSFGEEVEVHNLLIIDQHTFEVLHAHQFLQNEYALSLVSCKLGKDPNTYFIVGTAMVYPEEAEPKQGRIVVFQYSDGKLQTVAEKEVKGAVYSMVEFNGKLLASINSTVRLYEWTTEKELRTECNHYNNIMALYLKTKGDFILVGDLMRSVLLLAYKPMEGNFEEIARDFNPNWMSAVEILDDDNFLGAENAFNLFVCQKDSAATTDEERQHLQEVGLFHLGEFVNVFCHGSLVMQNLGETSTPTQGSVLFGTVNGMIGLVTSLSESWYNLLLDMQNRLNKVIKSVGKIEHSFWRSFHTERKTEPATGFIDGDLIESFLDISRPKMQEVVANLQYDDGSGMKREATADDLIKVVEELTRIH

Compound | EC50 [1] | IC50 (MV-4-11 cells) | IC50 (ARH-77 cells)
Cc1cc(OCCCc2c(C(=O)NS(=O)(=O)CCNC(=O)CCOCCOCCNc3cccc4c3C(=O)N(C3CCC(=O)NC3=O)C4=O)n(C)c3c(-c4c(C)nn(C)c4C)c(Cl)ccc23)cc(C)c1Cl (stereo not shown) [Compound 252, 6-chloro-3-(3-(4-chloro-3,5-dimethylphenoxy)propyl)-N-((2-(3-(2-(2-((2-(2,6-dioxopiperidin-3-yl)-1,3-dioxoisoindolin-4-yl)amino)ethoxy)ethoxy)propanamido)ethyl)sulfonyl)-1-methyl-7-(1,3,5-trimethyl-1H-pyrazol-4-yl)-1H-indole-2-carboxamide] | < 100 nM |  | 
Cc1nn(C)c(C)c1-c1c(Cl)ccc2c(CCCOc3cccc4cc(F)ccc34)c(C(=O)O)n(CCOCCCn3c(C)nc4c(C(=O)NC5CCC(=O)NC5=O)cccc43)c12 (stereo not shown) [Compound 282, 6-Chloro-1-[2-(3-{4-[(2,6-dioxopiperidin-3-yl)carbamoyl]-2-methyl-1H-1,3-benzodiazol-1-yl}propoxy)ethyl]-3-{3-[(6-fluoronaphthalen-1-yl)oxy]propyl}-7-(1,3,5-trimethyl-1H-pyrazol-4-yl)-1H-indole-2-carboxylic acid] | < 100 nM | ≤ 31.6 nM | > 3160 nM
Cc1nc2cc(NCC(=O)N3CCN(CCn4c(C(=O)O)c(CCCOc5cccc6cc(F)ccc56)c5ccc(Cl)c(-c6c(C)nn(C)c6C)c54)CC3)ccc2cc1C1CCC(=O)NC1=O (stereo not shown) [Compound 285, 6-Chloro-1-(2-(4-((3-(2,6-dioxopiperidin-3-yl)-2-methylquinolin-7-yl)glycyl)piperazin-1-yl)ethyl)-3-(3-((6-fluoronaphthalen-1-yl)oxy)propyl)-7-(1,3,5-trimethyl-1H-pyrazol-4-yl)-1H-indole-2-carboxylic acid] | < 10 nM | ≤ 100 nM | > 10000 nM
Cc1nc2cc(OCC(=O)N3CCN(CCn4c(C(=O)O)c(CCCOc5cccc6cc(F)ccc56)c5ccc(Cl)c(-c6c(C)nn(C)c6C)c54)CC3)ccc2cc1C1CCC(=O)NC1=O (stereo not shown) [Compound 288, 6-Chloro-1-(2-(4-(2-((3-(2,6-dioxopiperidin-3-yl)-2-methylquinolin-7-yl)oxy)acetyl)piperazin-1-yl)ethyl)-3-(3-((6-fluoronaphthalen-1-yl)oxy)propyl)-7-(1,3,5-trimethyl-1H-pyrazol-4-yl)-1H-indole-2-carboxylic acid] | < 100 nM |  | 
Cc1nc2ccc(C(=O)N3CCN(CCn4c(C(=O)O)c(CCCOc5cccc6cc(F)ccc56)c5ccc(Cl)c(-c6c(C)nn(C)c6C)c54)CC3)cc2cc1C1CCC(=O)NC1=O (stereo not shown) [Compound 290, 6-Chloro-1-(2-(4-(3-(2,6-dioxopiperidin-3-yl)-2-methylquinoline-6-carbonyl)piperazin-1-yl)ethyl)-3-(3-((6-fluoronaphthalen-1-yl)oxy)propyl)-7-(1,3,5-trimethyl-1H-pyrazol-4-yl)-1H-indole-2-carboxylic acid] | < 10 nM |  | 
Cc1nc2cc(C(=O)N3CCN(CCn4c(C(=O)O)c(CCCOc5cccc6cc(F)ccc56)c5ccc(Cl)c(-c6c(C)nn(C)c6C)c54)CC3)ccc2cc1C1CCC(=O)NC1=O (stereo not shown) [Compound 291, 6-Chloro-1-(2-{4-[3-(2,6-dioxopiperidin-3-yl)-2-methylquinoline-7-carbonyl]piperazin-1-yl}ethyl)-3-{3-[(6-fluoronaphthalen-1-yl)oxy]propyl}-7-(1,3,5-trimethyl-1H-pyrazol-4-yl)-1H-indole-2-carboxylic acid] | < 100 nM |  | 
Cc1nn(C)c(C)c1-c1c(Cl)ccc2c(CCCOc3cccc4cc(F)ccc34)c(C(=O)O)n(CCN3CCC(C(=O)N4CCN(c5cc6c(cc5F)C(=O)N(C5CCC(=O)NC5=O)C6=O)CC4)CC3)c12 (stereo not shown) [Compound 333, 6-Chloro-1-[2-(4-{4-[2-(2,6-dioxopiperidin-3-yl)-6-fluoro-1,3-dioxo-2,3-dihydro-1H-isoindol-5-yl]piperazine-1-carbonyl}piperidin-1-yl)ethyl]-3-{3-[(6-fluoronaphthalen-1-yl)oxy]propyl}-7-(1,3,5-trimethyl-1H-pyrazol-4-yl)-1H-indole-2-carboxylic acid] | < 10 nM | ≤ 1000 nM | 
Cc1noc(C)c1-c1c(Cl)ccc2c(CCCOc3cccc4cc(F)ccc34)c(C(=O)O)n(CCN3CCN(C(=O)COc4cccc5c4CN(C4CCC(=O)NC4=O)C5=O)CC3)c12 (stereo not shown) [Compound 347, 6-Chloro-7-(3,5-dimethylisoxazol-4-yl)-1-(2-(4-(2-((2-(2,6-dioxopiperidin-3-yl)-1-oxoisoindolin-4-yl)oxy)acetyl)piperazin-1-yl)ethyl)-3-(3-((6-fluoronaphthalen-1-yl)oxy)propyl)-1H-indole-2-carboxylic acid] | < 100 nM |  | 

More lines, main results first:

EC50 [1] | IC50 (MV-4-11 cells) | Compound | IC50 (ARH-77 cells)
< 100 nM | ≤ 100 nM | Cc1nn(C)c(C)c1-c1c(Cl)ccc2c(CCCOc3cccc4cc(F)ccc34)c(C(=O)O)n(CCC3CN(C(=O)COc4cccc5c4CN(C4CCC(=O)NC4=O)C5=O)C3)c12 (stereo not shown) [Compound 299, 6-Chloro-1-(2-(1-(2-((2-(2,6-dioxopiperidin-3-yl)-1-oxoisoindolin-4-yl)oxy)acetyl)azetidin-3-yl)ethyl)-3-(3-((6-fluoronaphthalen-1-yl)oxy)propyl)-7-(1,3,5-trimethyl-1H-pyrazol-4-yl)-1H-indole-2-carboxylic acid] | > 10000 nM
< 10 nM |  | Cc1nn(C)c(C)c1-c1c(Cl)ccc2c(CCCOc3cccc4cc(F)ccc34)c(C(=O)O)n(CCN3CC4(CCN(C(=O)COc5cccc6c5CN(C5CCC(=O)NC5=O)C6=O)CC4)C3)c12 (stereo not shown) [Compound 302, 6-Chloro-1-(2-(7-(2-((2-(2,6-dioxopiperidin-3-yl)-1-oxoisoindolin-4-yl)oxy)acetyl)-2,7-diazaspiro[3.5]nonan-2-yl)ethyl)-3-(3-((6-fluoronaphthalen-1-yl)oxy)propyl)-7-(1,3,5-trimethyl-1H-pyrazol-4-yl)-1H-indole-2-carboxylic acid] | 
< 100 nM |  | Cc1nn(C)c(C)c1-c1c(Cl)ccc2c(CCCOc3cccc4cc(F)ccc34)c(C(=O)O)n(CCN3CC4(C3)CN(C(=O)COc3cccc5c3CN(C3CCC(=O)NC3=O)C5=O)C4)c12 (stereo not shown) [Compound 303] | 
< 100 nM |  | Cc1nn(C)c(C)c1-c1c(Cl)ccc2c(CCCOc3cccc4cc(F)ccc34)c(C(=O)O)n(CCN3CC4(CCCN(C(=O)COc5cccc6c5CN(C5CCC(=O)NC5=O)C6=O)C4)C3)c12 (stereo not shown) [Compound 304, 6-Chloro-1-(2-(6-(2-((2-(2,6-dioxopiperidin-3-yl)-1-oxoisoindolin-4-yl)oxy)acetyl)-2,6-diazaspiro[3.5]nonan-2-yl)ethyl)-3-(3-((6-fluoronaphthalen-1-yl)oxy)propyl)-7-(1,3,5-trimethyl-1H-pyrazol-4-yl)-1H-indole-2-carboxylic acid] | 
< 100 nM |  | Cc1nn(C)c(C)c1-c1c(Cl)ccc2c(CCCOc3cccc4cc(F)ccc34)c(C(=O)O)n(CCN3CC4(CCN(C(=O)COc5cccc6c5CN(C5CCC(=O)NC5=O)C6=O)C4)C3)c12 (stereo not shown) [Compound 305, 6-Chloro-1-(2-(6-(2-((2-(2,6-dioxopiperidin-3-yl)-1-oxoisoindolin-4-yl)oxy)acetyl)-2,6-diazaspiro[3.4]octan-2-yl)ethyl)-3-(3-((6-fluoronaphthalen-1-yl)oxy)propyl)-7-(1,3,5-trimethyl-1H-pyrazol-4-yl)-1H-indole-2-carboxylic acid] | 
< 100 nM |  | Cc1nn(C)c(C)c1-c1c(Cl)ccc2c(CCCOc3cccc4cc(F)ccc34)c(C(=O)O)n(CCN3CCN(C(=O)C(C)(C)Oc4cccc5c4CN(C4CCC(=O)NC4=O)C5=O)CC3)c12 (stereo not shown) [Compound 311, 6-Chloro-1-{2-[4-(2-{[2-(2,6-dioxopiperidin-3-yl)-1-oxo-2,3-dihydro-1H-isoindol-4-yl]oxy}-2-methylpropanoyl)piperazin-1-yl]ethyl}-3-{3-[(6-fluoronaphthalen-1-yl)oxy]propyl}-7-(1,3,5-trimethyl-1H-pyrazol-4-yl)-1H-indole-2-carboxylic acid] | 
< 100 nM |  | Cc1nn(C)c(C)c1-c1c(Cl)ccc2c(CCCOc3cccc4cc(F)ccc34)c(C(=O)O)n(CCN3CCN(C(=O)CSc4cccc5c4CN(C4CCC(=O)NC4=O)C5=O)CC3)c12 (stereo not shown) [Compound 322, 6-Chloro-1-(2-(4-(2-((2-(2,6-dioxopiperidin-3-yl)-1-oxoisoindolin-4-yl)thio)acetyl)piperazin-1-yl)ethyl)-3-(3-((6-fluoronaphthalen-1-yl)oxy)propyl)-7-(1,3,5-trimethyl-1H-pyrazol-4-yl)-1H-indole-2-carboxylic acid] | 
